Assay results published in US4183931A, “2-Ketoalkyl-4(3H)-quinazolinones” (Research Corporation, priority 1977, dated 1980).

Tests used:
[1] = Neuropharmacological Profile (NPP): general CNS observational screen (depression, righting reflex, ataxia)
Protocol: Representative compounds according to the present invention were tested for central nervous system activity by Pharmakon Laboratories of Scranton, Pennsylvania. The battery of general observational procedures used is referred to herein as a Neuropharmacological Profile (NPP). Additionally, representative compounds were tested in the Anticonvulsant Screening Project of the National Institutes of Neurological and Communicative Disorders and Stroke (NINCDS) at the University of Utah under the direction of Dr. Ewart A. Swinyard.
(§1) The procedures for the determination of a neuropharmacological profile involved white male mice of the Carworth Farm Strain CF-1 weighing 18 to 22 grams. […] Intraperitoneal injections were administered in logarithmic progression and sequentially. The dose levels employed routinely were 10, 30, 100 and 300 mg/kg, using four male mice at each dose level. Since this test was conducted in a sequential manner, the first does administered was at 300 mg/kg. […] Approximately thirty-eight signs and symptoms of pharmacological activity can be identified.
(§2) The animals were observed continously for one hour and, if no signs of pharmacological or toxicological activity were present at the end of the first hour, they were intermittently checked for activity every fifteen minutes thereafter for two consecutive hours. […] The observation period began immediately following the injection and the animals were then continuously observed for three hours and intermittently checked thereafter for forty-eight hours. The animals were observed and signs and symptoms of pharmacological activity were recorded continuously until no further symptoms developed and until the symptoms that appeared were no longer present. […] In such instances, the animals were observed beyond this period until they returned to normal. Routinely, the number of animals alive at the end of the forty-eight hour observation period was recorded and the LD50 estimated.
The animals are free to move about for evaluation of spatial orientation, alertness and spontaneous motor activity.
(§3) Since this is a general CNS screening procedure, only peak effects were recorded. Certain measures of behavior and neurological deficit were scored in terms of intensity of effect, while most others were determined on an all or none basis. Thus, in scoring measures which were normally present, e.g., spontaneous activity and skin color, an increase in score from 4 to 8 was used to denote stimulation or enhancement of skin color, whereas a decrease in score from 4 to 0 indicated depression or cyanosis. For scoring measures normally absent, e.g., depression, righting reflex and ataxia, activity was reflected as an increase in score from 0 to 8. The 0 to 8 scale was rounded off so that the actual ratings are only 0, 2, 4, 6 and 8. The compounds were also evaluated for anticonvulsant activity by using the maximal electroshock seizure (MES) test. In the MES study, four mice were dosed intraperitoneally at 100 mg/kg and challenged thirty minutes later with 50 mA, 0.2 second duration of electroshock. A protection ratio (number of mice protected from tonic extension .div. number of mice tested) was then established.
At the termination of the test, the results were recorded and tabulated.
(§4) Scores for behavioral symptoms, including depression, righting reflex and ataxia, are the actual numbers reported. Protection against MES is reported as a percentage. Since four animals were involved in this test, the findings are 0% for none protected, 25% for one out of four, etc. […] In order to maintain reasonable uniformity in the reporting of results, each entry corresponds to a dosage level of 100 mg/kg. Any variations from that dosage are indicated.

[2] = NPP lethality (estimated LD50); conditions: mouse, in vivo, ip
Protocol: as §1, §2, §4

[3] = NPP maximal electroshock seizure (MES) protection; format: in vivo, white male mice of the Carworth Farm Strain CF-1; conditions: Mus musculus, ip, 0.5 h; at 100 mg/kg i.p., four mice, 30 min after dosing
Protocol: as §1, §3, §4

[4] = NINCDS Maximal Electroshock Seizure Test (MES); format: in vivo, mice; conditions: for minimal effective dose: read-out: MES: dosage level that elicited protection
Protocol: (§5) 1. Neurological Activity Tests. […] Compounds were evaluated for anticonvulsant activity in two seizure models, the maximal electroshock seizure (MES) test and the subcutaneous pentylenetetrazol (Metrazol) seizure threshold (scMet) test.
The Maximal Electroshock Seizure Test was performed according to the method described by Swinyard and coworkers,* wherein a drop of 0.9% saline is instilled in each eye prior to application of corneal electrodes. Seizures are elicited with a 50 Hz alternating current of 50 mA (5 to 7 times that necessary to elicit minimal electroshock seizures) delivered for 0.2 sec via corneal electrodes. This stimulus will produce a maximal seizure in all normal mice. The maximal seizure typically consists of a short period of initial tonic flexion and a prolonged period of hind limb tonic extension, followed by terminal clonus. The seizure lasts about 22 seconds. Abolition of the hind limb tonic extensor component of the seizure is defined as protection and indicates anticonvulsant activity in the test compound.
(§6) The ability of a compound to prevent maximal electroshock seizures is believed to correlate with its ability to prevent the spread of seizure discharge through neural tissue. Activity against maximal electroshock seizures is thought to indicate potential efficacy in the treatment of major motor (grand mal) seizures. […] Selective action in the test is believed to indicate potential efficacy against absence (petit mal) seizures.
(§7) As described earlier, the MES, scMet and Rotorod tests were performed one-half hour and four hours after administration of each compound.
(§8) In the Secondary Evaluation, median effective doses (ED50) are determined in the MES, scMet and Rotorod assays using the procedures defined in Pharmacology, 95, 99-113 (1949).
(§9) Separate groups of animals are used for each time period. The times of peak toxic and anticonvulsant effect are taken from the resulting graph of percent of animals responding vs. time, and the determinations of median effective doses are performed at those times.

[5] = NINCDS rotorod ataxia test (minimal neurotoxicity); format: in vivo, mice
Protocol: 1. Neurological Activity Tests. The biological testing program is designed to evaluate the following four aspects of drug action: (1) the existence and specificity of anticonvulsant activity; (2) the toxicity, particularly to the central nervous system; and, if the results of (1) and (2) are favorable, (3) the potency and protective index, a comparison between toxic and effective dose and (4) the time course of activity. Compounds were evaluated for anticonvulsant activity in two seizure models, the maximal electroshock seizure (MES) test and the subcutaneous pentylenetetrazol (Metrazol) seizure threshold (scMet) test.
Central nervous system toxicity was evaluated in the rotorod ataxia test. This test is designed to detect minimal neurotoxicity. The animal is placed on a 1-inch diameter knurled plastic rod rotating at 6 rpm. Normal mice can remain indefinitely on a rod rotating at this speed. Neurological deficit is defined as the failure of the animal to remain on the rod for at least 1 minute. This test has a clear end-point, is quantifiable and correlates well with the clinical assessment of minimal toxicity.
Specific anticonvulsant evaluations performed by NINCDS using MES, scMet and Rotorod assays are presented in Tables III & IV for fourteen new compounds as well as several known compounds. Table III centers attention on 2-substituted-3-o-tolyl-4-(3H)-quinazolinones while Table IV includes the findings for various other 2,3-disubstituted-4(3H)-quinazolinones. As described earlier, the MES, scMet and Rotorod tests were performed one-half hour and four hours after administration of each compound. The tables identify the dosage level that elicited a positive result, such as protection against MES and scMet induced seizures, or loss of balance on the rotorod.
In the Secondary Evaluation, median effective doses (ED50) are determined in the MES, scMet and Rotorod assays using the procedures defined in Pharmacology, 95, 99-113 (1949). In addition, each compound's anticonvulsant activity and neurotoxicity over time are determined by measuring the effect of an intraperitoneally administered estimated median effective dose on maximal electroshock seizures and rotorod performance at intervals of 1/2, 1, 2, 3, 4, 6 and 8 hours.
as §9

[6] = NINCDS Subcutaneous Pentylenetetrazol (Metrazol) Seizure Threshold Test (scMet); format: in vivo, mice; conditions: for minimal effective dose: sc, read-out: scMet: dosage level that elicited protection
Protocol: as §5
Subcutaneous Pentylenetetrazol (Metrazol) Seizure Threshold Test (scMet) produces threshold (clonic) seizures. Pentylenetetrazol is administered subcutaneously as a threshold 0.5% solution (in 0.9% sodium chloride) in a loose fold of skin on the back of the neck in a dose of 85 mg/kg. […] Metrazol is given 10 minutes before the beginning of the test to allow for the delay in onset of Metrazol action. The animal is observed for 30 minutes. Failure to observe even a threshold seizure (a single episode of clonic spasms at least 5 seconds in duration) is defined as protection and indicates anticonvulsant activity in the test compound. These two methods of seizure provocation reliably elicit well-characterizied seizure phenomena.
as §6, §7, §8, §9

[7] = at 100 mg/kg, i.p., mice, score 0-8
[8] = Mus musculus, ip, secondary evaluation, at time of peak effect
[9] = Mus musculus, after 4 hr (value in parentheses)
[10] = at 30 mg/kg (value in parentheses), i.p., mice, score 0-8
[11] = after 4 hr (value in parentheses)

Compound: Cc1ccccc1-n1c(CC(=O)c2ccncc2)nc2ccccc2c1=O [IIId, 2-[2-Oxo-2-(4-pyridyl)ethyl]-3-o-tolyl-4(3H)-quinazolinone]
- CNS Depression [1, 7]: 0
- Depression ([1]; at 300 mg/kg, i.p., mice, score 0-8): 4
- LD50 at 48 h [2]: > 562 mg/kg
- responders at 100 mg/kg [3]: 0%
- minimal effective dose ([4]; Mus musculus, ip, after 0.5 hr): 100 mg/kg
- ED50 [4, 8]: 74 mg/kg
- MES protective index compared with methaqualone ([4]; secondary evaluation): approximately five-fold higher
- PI MES (Protective Index = TD50/ED50) ([4]; secondary evaluation): 5.94
- potency against electroshock-induced (MES) seizures compared with methaqualone ([4]; secondary evaluation): less potent than methaqualone
- TD50 ([5]; mouse, in vivo, ip, secondary evaluation, at time of peak effect): 440 mg/kg
- ED50 [6, 8]: 75 mg/kg
- minimal effective dose ([6]; Mus musculus, after 0.5 hr): 30 mg/kg
- minimal effective dose [6, 9]: 300 mg/kg
- PI scMet (Protective Index = TD50/ED50) ([6]; secondary evaluation): 5.86
- potency against scMet seizures compared with methaqualone ([6]; secondary evaluation): less potent than methaqualone
- scMet protective index compared with methaqualone ([6]; secondary evaluation): approximately five-fold higher

Compound: Cc1ccccc1-n1c(CC(=O)c2cccnc2)nc2ccccc2c1=O [IIIc, 2-[2-Oxo-2-(3-pyridyl)ethyl]-3-o-tolyl-4(3H)-quinazolinone]
- CNS Depression [1, 10]: 4
- Ataxia [1, 7]: 8
- CNS Depression [1, 7]: 6
- LD50 at 48 h [2]: 562 mg/kg
- responders at 100 mg/kg [3]: 100%
- minimal effective dose [6, 9]: 300 mg/kg

Compound: Cc1ccccc1-n1c(CC(O)c2ccccc2)nc2ccccc2c1=O (centres unmarked) [CHOHC6 H5, 2-(2-Hydroxy-2-phenylethyl)-3-o-tolyl-4(3H)-quinazolinone]
- Rotorod: dosage level that elicited loss of balance [5, 11]: 300 mg/kg
- minimal effective dose ([6]; Mus musculus, after 0.5 hr): 300 mg/kg

Compound: Cc1ccccc1-n1c(CC(=O)c2ccccn2)nc2ccccc2c1=O [IIIb, 2-[2-Oxo-2-(2-pyridyl)ethyl]-3-o-tolyl-4-(3H)-quinazolinone]
- CNS Depression [1, 7]: 2
- LD50 at 48 h [2]: > 562 mg/kg
- responders at 100 mg/kg [3]: 0%
- minimal effective dose ([6]; Mus musculus, after 0.5 hr): 300 mg/kg

Compound: Cc1ccccc1-n1c(CC(=O)c2ccc(NC(=O)C(F)(F)F)cc2)nc2ccccc2c1=O [IIIl, 2-[2-Oxo-2-(p-trifluoroacetamidophenyl)ethyl]-3-o-tolyl-4(3H)-quinazolinone]
- Rotorod: dosage level that elicited loss of balance ([5]; after 0.5 hr): 300 mg/kg
- minimal effective dose ([6]; Mus musculus, after 0.5 hr): 300 mg/kg

Compound: O=C(Cc1nc2ccccc2c(=O)n1-c1ccccc1Cl)c1cccnc1 [IVc, 2-[2-Oxo-2-(3-pyridyl)ethyl]-3-o-chlorophenyl-4(3H)-quinazolinone]
- CNS Depression [1, 7]: 4
- LD50 at 48 h [2]: 562 mg/kg
- responders at 100 mg/kg [3]: 25%
- Rotorod: dosage level that elicited loss of balance [5, 11]: 300 mg/kg
- minimal effective dose ([6]; Mus musculus, after 0.5 hr): 300 mg/kg
- minimal effective dose [6, 9]: 300 mg/kg

Compound: Cc1ccc(-n2c(C)nc3ccccc3c2=O)cc1 [p-tolyl H, 2-methyl-3-p-tolyl-4(3H)-quinazolinone, reference compound]
- CNS Depression [1, 10]: 4
- Ataxia [1, 7]: 8
- CNS Depression [1, 7]: 8
- LD50 at 48 h [2]: > 562 mg/kg
- responders at 100 mg/kg [3]: 100%

Compound: CC(=O)Cc1nc2ccccc2c(=O)n1-c1ccccc1C [IIIn, 2-Acetonyl-3-o-tolyl-4(3H)-quinazolinone]
- behavioral activity compared with methaqualone ([1]; NPP summary): equal to methaqualone in affecting behavioral activity
- muscle relaxant properties ([1]; NPP summary): possible muscle relaxant properties not exhibited by methaqualone itself
- CNS Depression [1, 10]: 4
- CNS Depression [1, 7]: 8
- LD50 at 48 h [2]: > 562 mg/kg
- responders at 100 mg/kg [3]: 0%
- minimal effective dose [6, 9]: 300 mg/kg

Compound: CCc1nc2ccccc2c(=O)n1-c1ccccc1C [CH3, 2-Ethyl-3-o-tolyl-4(3H)-quinazolinone, reference compound]
- minimal effective dose ([4]; Mus musculus, ip, after 0.5 hr): 100 mg/kg
- minimal effective dose ([4]; Mus musculus, ip, after 4 hr (value in parentheses)): 300 mg/kg
- Rotorod: dosage level that elicited loss of balance ([5]; after 0.5 hr): 100 mg/kg
- Rotorod: dosage level that elicited loss of balance [5, 11]: 300 mg/kg
- minimal effective dose ([6]; Mus musculus, after 0.5 hr): 100 mg/kg
- minimal effective dose [6, 9]: 300 mg/kg

Compound: Cc1ccc(-n2c(CC(=O)c3cccnc3)nc3ccccc3c2=O)cc1 [IVk, 2-[2-Oxo-2-(3-pyridyl)ethyl]-3-p-tolyl-4(3H)-quinazolinone]
- CNS Depression [1, 7]: 4
- LD50 at 48 h [2]: 562 mg/kg
- responders at 100 mg/kg [3]: 0%

Compound: O=C(Cc1nc2ccccc2c(=O)n1-c1ccccc1)c1cccnc1 [IVg, 2-[2-Oxo-2-(3-pyridyl)ethyl]-3-phenyl-4(3H)-quinazolinone]
- CNS Depression [1, 7]: 2
- LD50 at 48 h [2]: 562 mg/kg
- responders at 100 mg/kg [3]: 0%
- minimal effective dose ([4]; Mus musculus, ip, after 0.5 hr): 100 mg/kg
- minimal effective dose ([6]; Mus musculus, after 0.5 hr): 100 mg/kg

Compound: CCOC(=O)C(=O)Cc1nc2ccccc2c(=O)n1-c1ccccc1C [IIIm, 2-Ethoxallylmethyl-3-o-tolyl-4(3H)-quinazolinone]
- CNS Depression [1, 7]: 4
- LD50 at 48 h [2]: > 562 mg/kg
- responders at 100 mg/kg [3]: 0%
